The text below walks through data of PMC6315376 (Cell Reports, 2019).

One test deals with phospho-AP2M1 (T156). Nature of the test: Western blot of phospho-AP2M1. It is filed as cell-based, human. The following applies: HT1080 cells, 1 μM, without WNT3A. On the technique in general: A western blot detects proteins with antibodies after separation by electrophoresis.
A further test relates to LRP6. Nature of the test: Western blot of endogenous LRP6 in HEK293T cells overexpressing AAK1. Particulars: FLAG-AAK1 overexpression, 100 nm, 6 hr. It is filed as cell-based, human.
Another test deals with phospho-AP2M1 (Thr156). Nature of the test: Western blot of phospho-AP2M1. It is filed as cell-based, human. The following applies: HEK293T cells, 2 hr, concentration-dependent.
A further test deals with LRP6 surface levels. Nature of the test: LRP6 surface staining by flow cytometry in HEK293T cells. It is filed as cell-based, human. The following applies: co-treatment with WNT3A, 8 hr. (In general: In flow cytometry, cells or beads pass a laser one at a time.)
In test [1] the test system is β-catenin-activated Firefly luciferase reporter (BAR). Nature of the test: BAR luciferase reporter assay in HT1080-B/R stable cells. It is filed as cell-based, human. The following applies: AAK1 siRNA 56 hr, then treatment 16 hr. Background: Reporter assays use an easily measured gene product as a stand-in for the process of interest.
In test [2] the target is T1, AAK1 (Homo sapiens, UniProt Q2M2I8). Nature of the test: biochemical. It is filed as binding.
Target sequence in this assay (Q2M2I8 31-396): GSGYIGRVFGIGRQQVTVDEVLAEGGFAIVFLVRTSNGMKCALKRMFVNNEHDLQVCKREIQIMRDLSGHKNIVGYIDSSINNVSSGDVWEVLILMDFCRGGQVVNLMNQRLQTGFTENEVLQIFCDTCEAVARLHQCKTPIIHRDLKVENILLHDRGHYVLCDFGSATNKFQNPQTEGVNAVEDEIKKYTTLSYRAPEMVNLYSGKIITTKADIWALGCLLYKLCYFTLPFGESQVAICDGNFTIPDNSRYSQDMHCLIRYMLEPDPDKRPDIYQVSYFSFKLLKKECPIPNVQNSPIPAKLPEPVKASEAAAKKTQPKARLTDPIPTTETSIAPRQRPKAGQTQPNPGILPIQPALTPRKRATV
Another test has as its target PIP5K1C (Homo sapiens, UniProt O60331). Nature of the test: PIP5K1C enzyme assay, ADP-Glo format. It is filed as biochemical.
The target of test [3] is T1, AAK1. Nature of the test: biochemical. The following applies: IC50 for inhibition of AAK1 enzymatic activity, 46 μM ATP (at Km).
Target sequence in this assay (Q2M2I8 27-365): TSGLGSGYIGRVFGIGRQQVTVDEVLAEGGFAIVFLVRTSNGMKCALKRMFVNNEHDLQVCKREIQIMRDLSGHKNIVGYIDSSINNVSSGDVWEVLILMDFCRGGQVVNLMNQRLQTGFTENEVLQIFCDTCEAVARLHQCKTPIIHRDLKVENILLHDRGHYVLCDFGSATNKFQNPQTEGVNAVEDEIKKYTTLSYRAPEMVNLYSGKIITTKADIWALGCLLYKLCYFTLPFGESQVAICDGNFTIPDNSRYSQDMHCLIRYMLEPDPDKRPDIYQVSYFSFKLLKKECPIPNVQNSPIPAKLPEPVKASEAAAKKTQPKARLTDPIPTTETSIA

Sequence of PIP5K1C (O60331 whole entry): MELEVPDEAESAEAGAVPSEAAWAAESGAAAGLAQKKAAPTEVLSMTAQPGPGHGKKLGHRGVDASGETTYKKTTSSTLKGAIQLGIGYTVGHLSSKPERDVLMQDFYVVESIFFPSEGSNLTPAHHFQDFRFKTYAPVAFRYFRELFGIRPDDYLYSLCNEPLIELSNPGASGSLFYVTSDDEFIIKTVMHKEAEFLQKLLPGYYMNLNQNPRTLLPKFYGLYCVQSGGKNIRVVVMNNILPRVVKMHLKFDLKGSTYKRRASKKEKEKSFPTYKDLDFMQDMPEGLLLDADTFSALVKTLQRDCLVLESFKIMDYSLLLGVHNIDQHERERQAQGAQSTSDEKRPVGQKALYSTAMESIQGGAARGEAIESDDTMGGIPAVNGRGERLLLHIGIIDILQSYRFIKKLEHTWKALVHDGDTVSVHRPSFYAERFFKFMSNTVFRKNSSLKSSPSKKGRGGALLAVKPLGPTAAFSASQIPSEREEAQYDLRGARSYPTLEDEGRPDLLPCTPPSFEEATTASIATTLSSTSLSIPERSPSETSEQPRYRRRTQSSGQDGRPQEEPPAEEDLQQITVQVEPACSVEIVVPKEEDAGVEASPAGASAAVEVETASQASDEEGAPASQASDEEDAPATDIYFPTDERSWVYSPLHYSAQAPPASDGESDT

Regarding `Cc1c[nH]c(-c2cnc(NCCNc3ccc(C#N)cn3)nc2-c2ccc(Cl)cc2Cl)n1` [CHIR99021], the pAP2M1 levels entry in the test on phospho-AP2M1 (T156) was “did not result in elevated pAP2M1 levels”.

As to `CO/C1=C\C(C)=C\[C@@H](C)[C@@H](O)[C@@H](C)C/C(C)=C/C=C/[C@H](OC)[C@@H]([C@@H](C)[C@@H](O)[C@H](C)[C@@]2(O)C[C@@H](O)[C@H](C)[C@@H](C(C)C)O2)OC1=O` [bafilomycin A1], the “AAK1-driven downregulation of LRP6” value in the test with LRP6 is on record as “rescued AAK1-driven downregulation of LRP6”.

With `CCN(CC)S(=O)(=O)Nc1cccc(-c2ccc3c(NC(=O)C4CC4)n[nH]c3c2)c1` [SGC-AAK1-1, N-(6-(3-((N,N-diethylsulfamoyl)amino)phenyl)-1H-indazol-3-yl)cyclopropanecarboxamide], in the test on phospho-AP2M1 (Thr156), the “phosphorylation of the AP2M1 subunit at Thr156” value is “inhibited the phosphorylation of the AP2M1 subunit at Thr156”. In addition, in the test with LRP6 surface levels, the “rescue of the WNT3A-induced decrease of LRP6 surface levels” value is “rescued”.

Regarding `CN(C)CCCN1c2ccccc2Sc2ccc(Cl)cc21` [chlorpromazine], in test [1], the “WNT signaling (BAR) induced by AAK1 silencing” value is “suppressed WNT signaling induced by AAK1 silencing”.

Usually Ki stands for the equilibrium dissociation constant of an inhibitor or competing ligand from its target. For orientation: IC50 means the point on the concentration scale where inhibition reaches its midpoint. In turn, `CC(C)C(=O)Nc1n[nH]c2cc(-c3cccc(NS(=O)(=O)C4CC4)c3)ccc12` [34A, N-(6-(3-(cyclopropanesulfonamido)phenyl)-1H-indazol-3-yl)isobutyramide] gave a Ki at AAK1 [2] of 2000 nM. Further, the IC50 against PIP5K1C was 3600 nM; against AAK1 [3], greater than 1000 nM.
